Results from ChEMBL document CHEMBL4715750, “Synthesis and in vitro, ex-vivo and in vivo activity of hybrid compounds linking a potent ROS and RNS scavenger activity with diverse substrates addressed to pass across the blood-brain barrier” (Eur J Med Chem, 2016).
pIC50: −log10 of the molar value. Activity calls are given as the source filed them. The rule behind the calls is not given here.

Experiments:
[1] = Antioxidant activity assessed as DPPH radical scavenging activity incubated for 60 mins in absence of light; format: functional
[2] = Permeability of the compound at pH 7.4 by PAMPA-BBB assay; format: ADME; conditions: read-out: permeability
[3] = system: SH-SY5Y; assay: Antioxidant activity in human SH-SY5Y cells assessed as inhibition of H2O2-induced DCFH oxidation measured after 1 hr by DCFH-DA dye based fluorescence assay; format: functional, cell-based
[4] = Cytotoxicity against human SH-SY5Y cells assessed as cell viability at 100 uM measured after 2 hrs by MTT assay relative to control; format: cell-based; conditions: read-out: Activity
[5] = Cytotoxicity against human SH-SY5Y cells assessed as cell viability at 50 uM measured after 2 hrs by MTT assay relative to control; format: cell-based; conditions: read-out: Activity
[6] = Cytotoxicity against human SH-SY5Y cells assessed as cell viability at 25 uM measured after 2 hrs by MTT assay relative to control; format: cell-based; conditions: read-out: Activity
[7] = Cytotoxicity against human SH-SY5Y cells assessed as cell viability at 12.5 uM measured after 2 hrs by MTT assay relative to control; format: cell-based; conditions: read-out: Activity
[8] = Cytotoxicity against human SH-SY5Y cells assessed as cell viability at 6.3 uM measured after 2 hrs by MTT assay relative to control; format: cell-based; conditions: read-out: Activity
[9] = Cytotoxicity against human SH-SY5Y cells assessed as cell viability at 3.1 uM measured after 2 hrs by MTT assay relative to control; format: cell-based; conditions: read-out: Activity
[10] = Cytotoxicity against human SH-SY5Y cells assessed as cell viability at 1.6 uM measured after 2 hrs by MTT assay relative to control; format: cell-based; conditions: read-out: Activity
[11] = Cytotoxicity against human SH-SY5Y cells assessed as cell viability at 0.8 uM measured after 2 hrs by MTT assay relative to control; format: cell-based; conditions: read-out: Activity
[12] = Cytotoxicity against human SH-SY5Y cells assessed as cell viability at 100 uM measured after 24 hrs by MTT assay relative to control; format: cell-based; conditions: read-out: Activity
[13] = Cytotoxicity against human SH-SY5Y cells assessed as cell viability at 50 uM measured after 24 hrs by MTT assay relative to control; format: cell-based; conditions: read-out: Activity
[14] = Cytotoxicity against human SH-SY5Y cells assessed as cell viability at 25 uM measured after 24 hrs by MTT assay relative to control; format: cell-based; conditions: read-out: Activity
[15] = Cytotoxicity against human SH-SY5Y cells assessed as cell viability at 12.5 uM measured after 24 hrs by MTT assay relative to control; format: cell-based; conditions: read-out: Activity
[16] = Cytotoxicity against human SH-SY5Y cells assessed as cell viability at 6.3 uM measured after 24 hrs by MTT assay relative to control; format: cell-based; conditions: read-out: Activity
[17] = Cytotoxicity against human SH-SY5Y cells assessed as cell viability at 3.1 uM measured after 24 hrs by MTT assay relative to control; format: cell-based; conditions: read-out: Activity
[18] = Cytotoxicity against human SH-SY5Y cells assessed as cell viability at 1.6 uM measured after 24 hrs by MTT assay relative to control; format: cell-based; conditions: read-out: Activity
[19] = Cytotoxicity against human SH-SY5Y cells assessed as cell viability at 0.8 uM measured after 24 hrs by MTT assay relative to control; format: cell-based; conditions: read-out: Activity
[20] = system: SH-SY5Y; assay: Cytoprotective activity against DMSO-induced toxicity in human SH-SY5Y cells; format: functional, cell-based

| SMILES | pIC50 [1] | Papp [2] | Activity [3] | pIC50 [3] | viability at 2 h, 100 µM [4] | viability at 2 h, 50 µM [5] | viability at 2 h, 25 µM [6] | viability at 2 h, 12.5 µM [7] | viability at 2 h, 6.3 µM [8] | viability at 2 h, 3.1 µM [9] | viability at 2 h, 1.6 µM [10] | viability at 2 h, 0.8 µM [11] | viability at 24 h, 100 µM [12] | viability at 24 h, 50 µM [13] | viability at 24 h, 25 µM [14] | viability at 24 h, 12.5 µM [15] | viability at 24 h, 6.3 µM [16] | viability at 24 h, 3.1 µM [17] | viability at 24 h, 1.6 µM [18] | viability at 24 h, 0.8 µM [19] | also measured |
| --- | --- | --- | --- | --- | --- | --- | --- | --- | --- | --- | --- | --- | --- | --- | --- | --- | --- | --- | --- | --- | --- |
| Cc1c(C)c2c(c(C)c1O)CCC(C)(C(=O)O)O2 (stereo not drawn) [TROLOX] | 4.80 | 1.04 ×10⁻⁶ cm/s | Dose-dependent effect | 4.08 | 86.5% | 92.4% | 99% | 95% | 97.4% | 97.6% | 88.5% | 93.2% | 68% | 81.9% | 86.4% | 82.8% | 83.7% | 79.6% | 87.6% | 84.6% | – |
| COc1cc2c(cc1O)CCC(C)(CC(=O)N[C@@H](Cc1c[nH]c3ccccc13)C(=O)O)O2 (stereo partly drawn) | 4.81 | 1.18 ×10⁻⁶ cm/s | Dose-dependent effect | < 3.70 | 95.4% | 95.2% | 100% | 100% | 100% | 97.9% | 97.2% | 94.8% | 65.9% | 92.8% | 90% | 91.2% | 94.9% | 100% | 96% | 94.6% | Activity [20]: Active |
| COc1cc2c(cc1O)CCC(C)(CC(=O)N[C@H](C(=O)O)C(C)C)O2 (stereo partly drawn) | 4.76 | 0.03 ×10⁻⁶ cm/s | Dose-dependent effect | 4.36 | 85.9% | 100% | 96.6% | 96.4% | 99.7% | 98% | 92.6% | 93.3% | 61% | 79.3% | 76.1% | 82.6% | 82% | 79.1% | 82.1% | 75.7% | – |
| COc1cc2c(cc1O)CCC(C)(CC(=O)N1CCC[C@H]1C(=O)O)O2 (stereo partly drawn) | 4.72 | 0.04 ×10⁻⁶ cm/s | Dose-dependent effect | 4.38 | 78.8% | 100% | 100% | 100% | 98.8% | 100% | 99.2% | 100% | 79.6% | 100% | 95.8% | 100% | 100% | 100% | 93.2% | 92.8% | – |
| COc1cc2c(cc1O)CCC(C)(CC(=O)O)O2 (stereo not drawn) | 5.08 | – | Dose-dependent effect | 4.49 | 79.9% | 100% | 100% | 100% | 100% | 100% | 100% | 100% | 53.1% | 61% | 92.5% | 92% | 100% | 100% | 100% | 90.2% | – |
| COc1cc2c(cc1O)CCC(C)(CCNC(=O)/C=C(C)/C=C/C=C(C)/C=C/C1=C(C)CCCC1(C)C)O2 (stereo not drawn) | 4.79 | – | Dose-dependent effect | < 3.52 | 57.7% | 97.4% | 100% | 100% | 90.5% | 97.3% | 93.6% | 87.4% | 47.9% | 91.7% | 91.2% | 100% | 100% | 100% | 99.1% | 89.6% | – |
| COc1cc2c(cc1O)CCC(C)(CC(=O)NCCc1ccc(O)c(O)c1)O2 (stereo not drawn) | 5.16 | 0.2 ×10⁻⁶ cm/s | Dose-dependent effect | 4.67 | 100% | 100% | 100% | 100% | 100% | 100% | 100% | 100% | 58.4% | 77.5% | 79.1% | 84.2% | 98.4% | 94.8% | 88.9% | 100% | – |
| COc1cc2c(cc1O)CCC(C)(CC(=O)N[C@@H](CCC(N)=O)C(=O)O)O2 (stereo partly drawn) | 4.82 | – | Dose-dependent effect | 4.11 | 86.5% | 100% | 100% | 100% | 100% | 100% | 97.1% | 92.8% | 58.2% | 83.2% | 91.8% | 84.8% | 84% | 100% | 89.4% | 92.8% | – |
